Consider 14 molecules from article PMC6753678, “Fueling Open Innovation for Malaria Transmission-Blocking Drugs: Hundreds of Molecules Targeting Early Parasite Mosquito Stages” (Frontiers in Microbiology, 2019).

For one data set, the system named is HepG2 cells. Description: HepG2 cytotoxicity assay. Particulars: HepG2 cytotoxicity unified across screens; >25 set to 25.00. In short, it runs like this: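 Cells at 2,500 per well in MEM with 10% fetal bovine serum and 1% NEAA were exposed to test compounds for 48 h at 37°C, 5% CO2. Viability was read by fluorescence, with percent inhibition calculated against 50 μM doxorubicin (positive) and DMSO (negative) controls.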

In data set [1] the test system is P. falciparum late stage (stages IV-V) gametocytes. Also on record: method as in Almela et al 2016. Particulars: P. falciparum late stage gametocyte ATP assay, TCAMS screen; ref Almela et al 2016; read-out: Pf GCT ATP IC50; cited from earlier work.
Data set [2] has the same test system. Description: P. falciparum late stage gametocyte ATP depletion assay (Pf GC-ATP). Particulars: 1: YES; 0: NO; >10-fold selectivity over cytotoxicity.

Turning to `CC(CCCC(=O)Nc1ccc(CC(C)NCCc2cccc(Cl)c2)cc1)NCCc1cccc(Cl)c1` (stereo not drawn) [TCMDC-139798], in the data set with HepG2 cells, the Unified cytotox is 4.50 µM. In data set [1], the IC50 was 0.82 µM. The “Is compound selective in assay? Pf GC-ATP active?” value (from here on “Is compound selective”) in data set [2] is 0 (0: NO).

In the case of `CC(CCCCC(=O)Nc1ccc(CC(C)NCCc2cccc(Cl)c2)cc1)NCCc1cccc(Cl)c1` (stereo not drawn) [TCMDC-139799], the Unified cytotox with HepG2 cells stood at 6.59 µM. The IC50 in data set [1] was 1.66 µM. The “Is compound selective” value in data set [2] is on record as 0 (0: NO).

In the data set with HepG2 cells, `CCCCCCCN1CC[C@@H](CCCc2ccnc3ccc(OCC4CCCNC4)cc23)[C@@H](CC)C1.Cl` (stereo partly drawn) [TCMDC-139816] registered a Unified cytotox of 4.18 µM. For the same molecule, in data set [1], the IC50 was 0.3 µM. In addition, in data set [2], the “Is compound selective” value is given as 1 (1: YES).

In the data set with HepG2 cells, `CCCCCCCN1CC[C@@H](CCCc2ccnc3ccc(OCCC4CCNCC4)cc23)[C@@H](CC)C1.Cl` [TCMDC-139819] displayed a Unified cytotox of 4.50 µM. The IC50 in data set [1] was 0.42 µM. In addition, the “Is compound selective” value in data set [2] is 1 (1: YES).

For `CCCCCCCN1CC[C@@H](CCCc2ccnc3ccc(OCCCCN/C(N)=N/O)cc23)[C@@H](CC)C1.O=C(O)C(=O)O` [TCMDC-139839], in the data set with HepG2 cells, the Unified cytotox was 17.20 µM. The IC50 in data set [1] is 0.47 µM. For the same molecule, the “Is compound selective” value in data set [2] is on record as 1 (1: YES).

Regarding `CC(Cc1ccc(COc2ccc(CC(CO)NCCc3cccc(Cl)c3)cc2)cc1)NCCc1cccc(Cl)c1.Cl` (stereo not drawn) [TCMDC-139844], the Unified cytotox with HepG2 cells was determined as 3.50 µM. Also, the IC50 in data set [1] was 1.39 µM. Besides, the “Is compound selective” value in data set [2] is listed as 0 (0: NO).

Molecule `Cl.O=C(/C=C/c1ccc(Cl)c(Cl)c1)N1CCC(CCN2CCC(c3c[nH]c4cnccc34)CC2)CC1` [TCMDC-140136] yielded a Unified cytotox with HepG2 cells of 7.21 µM. Moreover, in data set [1], the IC50 is 0.2 µM. Further, in data set [2], the “Is compound selective” value is listed as 1 (1: YES).

`Cc1cccc2[nH]cc(C3CCN(CC4CCC(NC(=O)/C=C/c5ccc(Cl)c(Cl)c5)CC4)CC3)c12.Cl` (stereo not drawn) [TCMDC-140137] had a Unified cytotox with HepG2 cells of 2.95 µM. Also, the IC50 in data set [1] is 1.45 µM. Besides, the “Is compound selective” value in data set [2] is given as 0 (0: NO).

On to `COc1cc(NCC(C)CNCc2cn(Cc3ccccc3)c3ccccc23)nc2ccccc12` (stereo not drawn) [TCMDC-140496], for which the Unified cytotox with HepG2 cells came to 5.00 µM. The IC50 in data set [1] is 1.71 µM. Further, in data set [2], the “Is compound selective” value is on record as 0 (0: NO).

`CN(C)CCN(Cc1ccccc1-c1ccc(CNCCc2ccccc2)cc1)C(=O)c1ccccc1.O=C(O)C(F)(F)F` [TCMDC-140532] had a Unified cytotox in the data set on HepG2 cells of 7.54 µM. Besides, the IC50 in data set [1] is 0.78 µM. In addition, in data set [2], the “Is compound selective” value was 0 (0: NO).

`CC(C)CNCc1cccc(-c2cccc(CN(CCCN3CCN(C)CC3)C(=O)/C=C/c3ccccc3)c2)c1.O=C(O)C(F)(F)F` [TCMDC-140541] displayed a Unified cytotox in the data set on HepG2 cells of 7.47 µM. Besides, the IC50 in data set [1] was 0.56 µM. Also, the “Is compound selective” value in data set [2] is reported as 1 (1: YES).

`CN1CCN(CCCN(Cc2cccc(-c3cccc(CNC4CCCC4)c3)c2)C(=O)/C=C/c2ccccc2)CC1.O=C(O)C(F)(F)F` [TCMDC-140543]: the Unified cytotox in the data set with HepG2 cells worked out at 7.17 µM. For the same molecule, the IC50 in data set [1] is 0.8 µM. In addition, the “Is compound selective” value in data set [2] is reported as 0 (0: NO).

For `CC(C)CNCc1cccc(-c2ccc(CN(CCCN3CCN(C)CC3)C(=O)/C=C/c3ccccc3)cc2)c1.O=C(O)C(F)(F)F` [TCMDC-140545], the Unified cytotox with HepG2 cells stood at 6.65 µM. For the same molecule, the IC50 in data set [1] was 0.63 µM. Besides, in data set [2], the “Is compound selective” value was 1 (1: YES).

In turn, `CC(C)CNCc1ccc(-c2ccc(CN(CCCN3CCN(C)CC3)C(=O)/C=C/c3ccccc3)cc2)cc1.O=C(O)C(F)(F)F` [TCMDC-140546] registered a Unified cytotox in the data set on HepG2 cells of 6.99 µM. The IC50 in data set [1] is 1 µM. The “Is compound selective” value in data set [2] was 0 (0: NO).

One may read the IC50 as the concentration that gives 50% inhibition.
